From ChEMBL document CHEMBL1147421, “Diamine derivatives with antiparasitic activities” (Bioorg Med Chem Lett, 2004)
Where “and” joins values, the source holds several entries; their conditions need not be identical. Equal entries are not always repeated.

Assays:
[1] = Antiparasitic activity against Leishmania promastigotes (Leishmania donovani); type: functional
Plasmodium falciparum [2] = assay: Antiparasitic activity against Plasmodium falciparum D6; type: functional, organism-based
Plasmodium falciparum [3] = assay: Antiparasitic activity against chloroquine-resistant Plasmodium falciparum W2; type: functional, organism-based

| Compound | EC50 [1] | EC50 (Plasmodium falciparum [2]; Plasmodium falciparum) | EC50 (Plasmodium falciparum [3]) | EC50 (Plasmodium falciparum [2]) | EC50 (Plasmodium falciparum [3]; Plasmodium falciparum) |
| --- | --- | --- | --- | --- | --- |
| CCCCN(CCCC)CCCN.O=C(O)C(F)(F)F | 4660 nM | 6330 nM | Not Active | – | – |
| NCCCCN(Cc1ccc(OCCc2ccccc2)cc1)Cc1ccc(OCCc2ccccc2)cc1.O=C(O)C(F)(F)F | 13000 nM and 27000 nM | 7430 nM | Not Active | 8680 nM | – |
| COc1ccc(CN(CCCCN)Cc2ccc(OC)cc2)cc1.O=C(O)C(F)(F)F | 10600 nM | – | – | Not Active | 6.78 µM |
| COc1ccc(CN(CCCN)Cc2ccc(OC)cc2OC)c(OC)c1.O=C(O)C(F)(F)F | 20500 nM | – | – | Not Active | 9.42 µM |
| CCCCOc1ccc(CN(CCCN)Cc2ccc(OCCCC)cc2)cc1 | 1220 nM and 1270 nM | 4370 nM | 6.44 µM | 4100 nM | 6.64 µM |
| Cc1ccc(COc2ccc(CN(CCCN)Cc3ccc(OCc4ccc(C)cc4)cc3)cc2)cc1 | 1200 nM and 1070 nM | 1420 nM | 4.6 µM | 1410 nM | 3.59 µM |
| COc1ccc(CN(CCCN)Cc2ccccc2)cc1.O=C(O)C(F)(F)F | 4520 nM | – | Not Active | Not Active | – |
| NCCCN(Cc1ccc(OCc2c(F)c(F)c(F)c(F)c2F)cc1)Cc1ccc(OCc2c(F)c(F)c(F)c(F)c2F)cc1 | 3810 nM and 1950 nM | 2240 nM | 3.29 µM | 2680 nM | 3.16 µM |
| NCCCCN(Cc1ccc(Br)o1)Cc1ccc(Br)o1.O=C(O)C(F)(F)F | 19200 nM | – | Not Active | Not Active | – |
| NCCCCN(Cc1ccc(OCc2ccccc2)c(OCc2ccccc2)c1)Cc1ccc(OCc2ccccc2)c(OCc2ccccc2)c1 | 1860 nM | 3470 nM | – | – | 2.23 µM |
| NCCCCN(Cc1ccc(OCc2c(F)c(F)c(F)c(F)c2F)cc1)Cc1ccc(OCc2c(F)c(F)c(F)c(F)c2F)cc1 | 2520 nM and 2970 nM | 680 nM | 2.07 µM | – | 2.16 µM |
| NCCCN(Cc1ccccc1)Cc1ccc(Cc2ccc(Br)o2)cc1.O=C(O)C(F)(F)F | 20600 nM | – | – | Not Active | 5.72 µM |
| NCCCN(Cc1ccc(OCc2ccc(Br)cc2)cc1)Cc1ccc(OCc2ccc(Br)cc2)cc1 | 910 nM and 880 nM | 1140 nM | 2.25 µM | 1230 nM | 2.44 µM |
| NCCCN(Cc1ccc(Br)o1)Cc1ccc(Br)o1.O=C(O)C(F)(F)F | 19800 nM | – | Not Active | Not Active | – |
| CC(C)c1ccc(CN(CCCN)Cc2ccc(C(C)C)cc2)cc1.O=C(O)C(F)(F)F | 2650 nM | – | – | Not Active | 9.5 µM |
| COc1ccc(CN(CCCCN)Cc2ccccc2)cc1.O=C(O)C(F)(F)F | 1450 nM | – | – | Not Active | 2.23 µM |
| NCCCN(Cc1ccc(OCCCc2ccccc2)cc1)Cc1ccc(OCCCc2ccccc2)cc1 | 940 nM and 1000 nM | 1880 nM | 3.44 µM | 2010 nM | 5.34 µM |
| CC1=C2[C@H]3OC(=O)[C@@H](C)[C@@H]3[C@@H](O)C[C@@]2(C)C=CC1=O | – | 20 nM | – | – | 0.02 µM |
| CC(C)(C)c1ccc(COc2ccc(CN(CCCN)Cc3ccc(OCc4ccc(C(C)(C)C)cc4)cc3)cc2)cc1 | 2130 nM and 1370 nM | 2520 nM | 4.04 µM | 2020 nM | 3.85 µM |
| COc1cccc(CN(CCCN)Cc2cccc(OC)c2)c1.O=C(O)C(F)(F)F | 12600 nM | – | Not Active | Not Active | – |
| COc1ccc(CN(CCCN)Cc2ccccc2)cc1OC.O=C(O)C(F)(F)F | 3970 nM | – | – | Not Active | 5.6 µM |
| CCCCOc1ccc(CN(CCCCN)Cc2ccc(OCCCC)cc2)cc1 | 2470 nM and 3920 nM | 4090 nM | 2.9 µM | – | 4.18 µM |
| COc1cc(CN(CCCN)Cc2cc(OC)cc(OC)c2)cc(OC)c1.O=C(O)C(F)(F)F | 9420 nM | – | Not Active | Not Active | – |
| COc1cccc(CN(CCCCN)Cc2cccc(OC)c2)c1.O=C(O)C(F)(F)F | 10800 nM | – | – | Not Active | 6.1 µM |

| Compound | EC50 [1] | EC50 (Plasmodium falciparum [2]; Plasmodium falciparum) | EC50 (Plasmodium falciparum [3]) | EC50 (Plasmodium falciparum [2]) | EC50 (Plasmodium falciparum [3]; Plasmodium falciparum) |
| --- | --- | --- | --- | --- | --- |
| NCCCCN(Cc1ccccc1)Cc1ccc(OCc2ccccc2)cc1 | 370 nM | 5730 nM | – | – | 7.78 µM |
| NCCCN(Cc1ccccc1)Cc1ccc(OCc2ccccc2)cc1 | 1370 nM | 4430 nM | – | – | 3.79 µM |
| NCCCCN(Cc1ccc(OCc2ccccc2)cc1)Cc1ccc(OCc2ccccc2)cc1 | 1850 nM | 3200 nM | – | – | 4.88 µM |
| CC(C)c1ccc(CN(CCCN)Cc2ccccc2)cc1 | 1580 nM | 7310 nM | – | – | 2.19 µM |
| CC(C)c1ccc(CN(CCCCN)Cc2ccccc2)cc1 | 1880 nM | 9660 nM | – | – | 10.1 µM |
| NCCCCN(Cc1ccc(OCc2ccc(Cl)c(Cl)c2)cc1)Cc1ccc(OCc2ccc(Cl)c(Cl)c2)cc1 | 3820 nM and 3660 nM | 1160 nM | 2.59 µM and 0.69 µM | – | – |
| NCCCN(Cc1ccc(OCc2ccccc2)c(OCc2ccccc2)c1)Cc1ccc(OCc2ccccc2)c(OCc2ccccc2)c1 | 1640 nM | 2900 nM | – | – | 3.03 µM |
| NCCCN(Cc1ccc(Cl)cc1)Cc1ccc(Cl)cc1.O=C(O)C(F)(F)F | 8690 nM | – | – | Not Active | 10.1 µM |
| NCCCCN(Cc1ccccc1)Cc1ccc(Br)o1.O=C(O)C(F)(F)F | 21000 nM | – | Not Active | Not Active | – |
| COc1ccc(CN(CCCN)Cc2ccc(OC)cc2)cc1.O=C(O)C(F)(F)F | 10000 nM | – | – | Not Active | 9.34 µM |
| NCCCN(Cc1ccc(OCCc2ccccc2)cc1)Cc1ccc(OCCc2ccccc2)cc1.O=C(O)C(F)(F)F | 14200 nM and 11100 nM | 4250 nM | Not Active | 6940 nM | – |
| NCCCN(Cc1ccccc1)Cc1ccc(Cl)cc1.O=C(O)C(F)(F)F | 1860 nM | – | – | Not Active | 7.7 µM |
| NCCCCN(Cc1ccc(OCCCc2ccccc2)cc1)Cc1ccc(OCCCc2ccccc2)cc1 | 2460 nM and 2960 nM | 1120 nM | 2.53 µM | 1040 nM | 3.07 µM |
| NCCCN(Cc1ccc(OCc2ccccc2)cc1)Cc1ccc(OCc2ccccc2)cc1 | 1120 nM | 4990 nM | – | – | 6.03 µM |
| NCCCN(Cc1ccc(OCc2ccc(Cl)c(Cl)c2)cc1)Cc1ccc(OCc2ccc(Cl)c(Cl)c2)cc1 | 970 nM and 2570 nM | 1340 nM | 4.11 µM | 1540 nM | 3.2 µM |
| CC(C)(C)c1ccc(COc2ccc(CN(CCCCN)Cc3ccc(OCc4ccc(C(C)(C)C)cc4)cc3)cc2)cc1 | 8920 nM and 3000 nM | 1070 nM | 6.42 µM and 2.09 µM | – | – |
| NCCCN(Cc1ccc(-c2ccc(Br)cc2)o1)Cc1ccc(-c2ccc(Br)cc2)o1.O=C(O)C(F)(F)F | 8510 nM | 5620 nM | Not Active | – | – |
| NCCCCN(Cc1ccc(Cl)cc1)Cc1ccc(Cl)cc1.O=C(O)C(F)(F)F | 3770 nM | – | Not Active | Not Active | – |
| NCCCN(Cc1ccccc1)Cc1ccccc1.O=C(O)C(F)(F)F | 24200 nM | – | Not Active | Not Active | – |
| COc1cc(CN(CCCN)Cc2ccc(OCc3ccccc3)c(OC)c2)ccc1OCc1ccccc1 | 670 nM | 2970 nM | – | – | 2.81 µM |
| COc1cc(CN(CCCCN)Cc2ccc(OCc3ccccc3)c(OC)c2)ccc1OCc1ccccc1 | 1830 nM | 1070 nM | – | – | 1.68 µM |
| C[C@@H]1[C@H](O)[C@@H](C)/C=C/C=C/CC/C=C/C=C/C=C/C=C/[C@H](O[C@@H]2O[C@H](C)[C@@H](O)[C@H](N)[C@@H]2O)C[C@@H]2O[C@](O)(C[C@@H](O)C[C@@H](O)[C@H](O)CC[C@@H](O)C[C@@H](O)CC(=O)O[C@H]1C)C[C@H](O)[C@H]2C(=O)O | 10 nM | – | – | – | – |
| CCN(CC)CCCC(C)Nc1ccnc2cc(Cl)ccc12 (stereo not drawn) [CHLOROQUINE] | – | 14 nM | – | – | 0.31 µM |
| N=C(N)c1ccc(OCCCCCOc2ccc(C(=N)N)cc2)cc1 [PENTAMIDINE] | 1350 nM | – | – | – | – |
